Reference: US20220370463A1, “STABILIZED C-FMS INTRACELLULAR FRAGMENTS (FICD) PROMOTE OSTEOCLAST DIFFERENTIATION AND ARTHRITIC BONE EROSION” (New York Society for the Relief of the Ruptured and …, priority 2019, published 2022)

Legend:
human CD14+ cells = assay: Human osteoclastogenesis assay (TRAP-positive multinuclear cells); format: cell-based; settings: M-CSF, RANKL and MDL28170 for 4 days
Procedure: (§1) FIGS. 10A-10F show calpain regulates FICD generation. (A and B) Human CD14+ cells were cultured with M-CSF (20 ng/ml) for 8 hours to induce early signals and then (A) MDL 28170(0, 1, 2, 5 uM) or (B) PD150606 (0, 2, 5 uM) was added for 2 days. Immunoblot with anti c-FMS and α-tubulin antibodies in whole lysates(n=3). (C) Immunoblot of nuclear lysates with c-FMS and Lamin B1 antibodies. Cells were cultured with M-CSF for 12 hours, and then M-CSF was removed. Cells were subsequently treated with or without CaCl2 (10 mM) for an additional 24 hours. (D) Osteoclastogenesis assay. Human CD14+ cells were cultured with M-CSF, RANKL and MDL28170 for 4 days. […] Black scale bar is 100 μm. (E) A table showing the calpain cleavage site in c-FMS predicted by GPS-CCD program. First two calpain cleavage sites in cytoplasmic domains of c-FMS were used for FICD constructs. (F) A schematic diagram of a FICD construct. Representative results from at least three independent experiments.
For human osteoclastogenesis assays, cells were added to 96 well plates in triplicate at a seeding density of 5×10^4 cells per well. Osteoclast precursors were incubated with 20 ng/ml of M-CSF and 40 ng/ml of human soluble RANKL up to 5 days in α-MEM supplemented with 10% FBS and 1% L-glutamine. […] Multinucleated (greater than 3 nuclei), TRAP-positive osteoclasts were counted in triplicate wells. […]

[1] = system: FICD (mem, H-FICD, L-FICD); assay: FICD in membrane, cytoplasmic and nuclear fractions of human OCPs, immunoblot; format: cell-based
Procedure: (a) Human CD14+ cells were cultured with M-CSF (20 ng/ml) for 8 hours to induce early signals and then DAPT (10uM) was added for 2 days. Protein expression of c-FMS, Na+K+ pump, Lamin B1 and α-tubulin, as determined by immunoblot. ME; membrane extracts, CE; cytoplasmic extracts, and NE; nuclear extracts. (b) Immunohistochemistry of DAPI and c-FMS [middle]. […] Scale: 200×. (c) Cells were starved for three hours and then stimulated with M-CSF for the indicated times. (d and e) Cells were treated with Imatinib (0.3 μM, d) or c-FMS blocking antibody (5 μg) prior to the addition of M-CSF. Protein expression of FICD was measured by immunoblot. Lamin B1 and α-tubulin were used as controls for nuclear and cytoplasmic fractions, respectively. (f) Human CD14+ cells were cultured with M-CSF (20 ng/ml) for 8 hours to induce early signals and then MDL 28170(5 uM). Immunoblot with anti c-FMS and Lamin B1 antibodies. (g and h) Calpain 1, 5, and 6 were knocked down with siRNAs. Cells were cultured with M-CSF for 12 hours. (g) Efficiency of knockdown of Calpain 1, 5, and 6. (h) Immunoblot of c-FMS and Lamin B1. All data are shown as mean±SEM. *,p<0.05 by two-tailed, unpaired t-test (g). Representative results from at least three independent experiments.
as §1, with “(A” for “FIGS. 10A-10F show calpain regulates FICD generation. (A”, “(E) A table showing the calpain cleavage site in c-FMS predicted by GPS-CCD program.” left out
Whole cell extracts were prepared by lysis in buffer containing 1× Lamin sample buffer (Bio-rad) and 2-Mercaptoethanol (Sigma) or RIPA buffer (Sigma). The cell membrane-permeable protease inhibitor, Pefablock (1 mM), was added immediately prior to harvest cells. The membrane proteins were extracted with Mem-PER™ Plus Membrane Protein Extraction Kit (Thermorfisher scientific; 89842) according to manufacturer's instructions. To extracts of nucleus protein, cells were incubated in buffer A (10 mM Hepes, pH 7.9, 1.5 mM MgCl2, 10 mM KCl, 0.1 mM EDTA, 0.1 mM EGTA, proteinase inhibitor cocktail (Complete, Roche) and 1 mM DTT) for 15 min at 4° C. NP-40 was added to a final concentration of 0.5%. Nucleus was collected by centrifugation (5000 rpm, 5 min). The pellets were lysed by Bioruptor-ultrasonicator (UCD400, Diagenode) in buffer B (20 mM Hepes, pH 7.9, 0.4M NaCl, 10 mM KCl, 1 mM EDTA, 1 mM EGTA, 10% Glycerol, proteinase inhibitor cocktail and 1 mM DTT) and collected the supernatant by centrifugation (12,000 rpm, 10 min). The protein concentration of nuclear extracts was quantitated using the Bradford assay (Bio-Rad; 5000001). For immunoblot, proteins were separated on 7.5 or 10% SDS-PAGE gels, transferred to polyvinylidene difluoride membranes (PVDF, Millipore; ISEQ00010), and detected by antibodies as listed in the figure legends.

[2] = MDL 28170 5 uM after 8 hours M-CSF, nuclear extracts

MDL28170
osteoclast differentiation (human CD14+ cells): decreased | effect of calcium signaling on L-FICD processing ([1]; M-CSF removed, CaCl2 (10 mM) for 24 hours, nuclear lysates): reversed | enrichment of L-FICD versus H-FICD in the nucleus [1, 2]: shifted the enrichment of L-FICD to H-FICD in the nucleus | translocation of FICD into the nucleus [1, 2]: did not interfere
